Entries after “also recorded” stand apart in the source; their conditions may differ.
Key:
[1] = system: α-SMA mRNA; assay: BDL mice liver quantitative RT-PCR, Alpha-SMA; assay type: in vivo; settings: for Alpha-SMA relative mRNA expression level: BDL mice liver, normalized to 36B4, Sham 1.00, mean ± SD
Description: (§1) Quantitative RT-PCR: Total ribonucleic acid (RNA) was extracted from liver samples using RNAiso (Takara Bio, Japan) according to the manufacturer's instructions. One μg of RNA was reverse-transcribed using a reaction mixture containing 4.4 mM magnesium chloride (MgCl2) (F. Hoffmann-La Roche, Switzerland), 40 U RNase inhibitor (Toyobo, Japan), 0.5 mM dNTP (Promega, USA), 6.28 μM random hexamer (Promega), 5× first strand buffer (Promega), 10 mM dithiothreitol (Invitrogen, USA) and 200 U MMLV-RT (Invitrogen) in a final volume of 20 μL. The reaction was carried out for 1 hour at 37° C., followed by 5 minutes at 99° C. Real-time PCR was performed using real-time PCR DICE and TB Green™ Premix Ex Taq™ II (Takara Bio). To calculate the relative mRNA expression level, the expression of each gene (α-SMA, TIMP-1, TGF-β and Collagen Type 1) was normalized to that of reference gene 36B4 (gene symbol: Rplp0). Information regarding the PCR-primer sets and the plate layout are described in Tables 8 and 9.

[2] = system: TIMP-1 mRNA; assay: BDL mice liver quantitative RT-PCR, TIMP-1; assay type: in vivo; settings: for TIMP-1 relative mRNA expression level: BDL mice liver, normalized to 36B4, Sham 1.00, mean ± SD
Description: as §1

[3] = system: NAFLD patients; assay: Phase IIa study in NAFLD patients: ALP and liver fibrosis markers; assay type: in vivo, human; settings: 2 g
Description: The study was planned to include 96 evaluable patients with 32 patients randomized per treatment group.
Clinical Laboratory Safety Tests: Safety tests were performed for hematology, serum biochemistry, coagulation, lipid profile, and urinalysis: Blood and urine samples were taken as per the Study Flow Chart in Table 19 for routine hematology, serum biochemistry, coagulation and urinalysis tests, along with a Lipid Profile. All samples were analyzed in the central laboratory. All subjects were fasted for a minimum of 8 hours prior to blood sampling. […]

[4] = BDL mice, 500 mg/kg PO QD Day 0-13, 500 mg/kg
[5] = BDL mice, DS102 treatment groups as a whole

## 15-HEPE [DS102]
[1]; 50 mg/kg PO QD Day 0-13
  Alpha-SMA relative mRNA expression level: 3.21 ± 1.67
[1]; 250 mg/kg PO QD Day 0-13
  Alpha-SMA relative mRNA expression level: 2.66 ± 1.33
[1]; 500 mg/kg PO QD Day 0-13
  Alpha-SMA relative mRNA expression level: 1.42 ± 0.75
[1]; [4]
  α-SMA mRNA expression level compared with the Vehicle group: tended to decrease; also recorded: trend approaching significance
[1]; [5]
  α-SMA mRNA expression level, Vehicle group vs the DS102 treatment groups: no significant differences
[2]; 50 mg/kg PO QD Day 0-13
  TIMP-1 relative mRNA expression level: 43.82 ± 26.19
[2]; 250 mg/kg PO QD Day 0-13
  TIMP-1 relative mRNA expression level: 30.65 ± 16.80
[2]; 500 mg/kg PO QD Day 0-13
  TIMP-1 relative mRNA expression level: 16.09 ± 10.16
[2]; [4]
  TIMP-1 mRNA expression level compared with the Vehicle group: tended to decrease; also recorded: trend approaching significance
[2]; [5]
  TIMP-1 mRNA expression level, Vehicle group vs the DS102 treatment groups: no significant differences
[3]
  alkaline phosphate (ALP): reduced
  multiple markers for liver fibrosis: reduced

From patent US12076304B2, “Compositions comprising 15-HEPE and methods of treating or preventing hematologic disorders, and/or related diseases” (priority 2020, dated 2024)
